≈ marks a conversion by molar mass, not a printed value. Where two headings read alike, the source gives them in different places.
Legend:
[1] = In-vivo absorbency (plasma concentrations & pharmacokinetic parameters); design: species or system SD rat (male); details: plasma, SD male rat, iv 20 mg/kg, read-out: Plasma Conc.
[2] = as above; design: species or system SD rat (male); details: plasma, SD male rat, iv 20 mg/kg; for half-life: rat, iv, 20 mg/kg
From the text: The blood samples from the femoral vein of the rats were taken every hour after administration, and analyzed by bio-assay(agar well method).
Tested animal: SD male Rat (220~340 g)

[3] = test system: Serratia marcescens ATCC 27117; assay: Antibacterial activity, MIC; format: cell-based; details: ATCC27117, ATCC 27117, agar two-fold dilution, 37° C., 20 hours, read-out: MIC
Description: (§1) Also, the in vitro antibacterial activity was determined by the by a two-fold dilution method as described below:
(§2) That is, the two-fold serial dilutions of the compound were made dispersed in Muller-Hinton agar medium. 2 μl of standard test strain which had the 10^7 CFU per ml was inoculated on the medium, and was incubated at 37° C. for 20 hours.

[4] = test system: Morganella morganii ATCC 8076h; assay: Antibacterial activity, MIC; format: cell-based; details: ATCC8076H, agar two-fold dilution, 37° C., 20 hours
Description: as §1, §2

[5] = test system: Pseudomonas aeruginosa ATCC 25619; assay: Antibacterial activity, MIC; format: cell-based; details: ATCC25619, ATCC 25619, agar two-fold dilution, 37° C., 20 hours, read-out: MIC
Description: as §1, §2

[6] = test system: Micrococcus luteus ATCC 9341; assay: Antibacterial activity, MIC; format: cell-based; details: ATCC9341, ATCC 9341, agar two-fold dilution, 37° C., 20 hours, read-out: MIC
Description: as §1, §2

[7] = test system: Citrobacter freundii ATCC 8090; assay: Antibacterial activity, MIC; format: cell-based; details: ATCC8090, ATCC 8090, agar two-fold dilution, 37° C., 20 hours, read-out: MIC
Description: as §1, §2

[8] = test system: Bacillus cereus ATCC 11778; assay: Antibacterial activity, MIC; format: cell-based; details: ATCC11778, ATCC 11778, agar two-fold dilution, 37° C., 20 hours, read-out: MIC
Description: as §1, §2

[9] = test system: Proteus vulgaris ATCC 6059; assay: Antibacterial activity, MIC; format: cell-based; details: ATCC6059, ATCC 6059, agar two-fold dilution, 37° C., 20 hours, read-out: MIC
Description: as §1, §2

[10] = test system: Klebsiella pneumoniae ATCC 10031; assay: Antibacterial activity, MIC; format: cell-based; details: ATCC10031, ATCC 10031, agar two-fold dilution, 37° C., 20 hours, read-out: MIC
Description: as §1, §2

[11] = test system: Salmonella typhimurium ATCC 14028; assay: Antibacterial activity, MIC; format: cell-based; details: Salmonella enterica; ATCC 14028; agar two-fold dilution, 37° C., 20 hours; read-out: MIC
Description: as §1, §2

[12] = test system: Staphylococcus aureus ATCC 6538p; assay: Antibacterial activity, MIC; format: cell-based; details: ATCC6538P, ATCC 6538p, agar two-fold dilution, 37° C., 20 hours, read-out: MIC
Description: as §1, §2

[13] = test system: Enterobacter aerogenes ATCC 29751; assay: Antibacterial activity, MIC; format: cell-based; details: Klebsiella aerogenes, ATCC29751; ATCC 29751; agar two-fold dilution, 37° C., 20 hours; read-out: MIC
Description: as §1, §2

[14] = test system: Escherichia coli ATCC 10536; assay: Antibacterial activity, MIC; format: cell-based; details: ATCC10536, agar two-fold dilution, 37° C., 20 hours
Description: as §1, §2

[15] = test system: Acinetobacter calcoaceticus ATCC 15473; assay: Antibacterial activity, MIC; format: cell-based; details: ATCC15473, ATCC 15473, agar two-fold dilution, 37° C., 20 hours, read-out: MIC
Description: as §1, §2

[16] = test system: Staphylococcus epidermidis ATCC 12228; assay: Antibacterial activity, MIC; format: cell-based; details: ATCC12228, ATCC 12228, agar two-fold dilution, 37° C., 20 hours, read-out: MIC
Description: as §1, §2

[17] = test system: Enterobacter cloacae ATCC 27508; assay: Antibacterial activity, MIC; format: cell-based; details: ATCC27508, ATCC 27508, agar two-fold dilution, 37° C., 20 hours, read-out: MIC
Description: as §1, §2

[18] = test system: Pseudomonas aeruginosa ATCC 27853; assay: Antibacterial activity, MIC; format: cell-based; details: ATCC27853, ATCC 27853, agar two-fold dilution, 37° C., 20 hours, read-out: MIC
Description: as §1, §2

[19] = test system: Staphylococcus aureus ATCC 10537; assay: Antibacterial activity, MIC; format: cell-based; details: ATCC10537, ATCC 10537, agar two-fold dilution, 37° C., 20 hours, read-out: MIC
Description: as §1, §2

[20] = test system: Pseudomonas aeruginosa ATCC 10145; assay: Antibacterial activity, MIC; format: cell-based; details: ATCC10145, ATCC 10145, agar two-fold dilution, 37° C., 20 hours, read-out: MIC
Description: as §1, §2

[21] = test system: Proteus mirabilis ATCC 25933; assay: Antibacterial activity, MIC; format: cell-based; details: ATCC25933, ATCC 25933, agar two-fold dilution, 37° C., 20 hours, read-out: MIC
Description: as §1, §2

[22] = test system: Escherichia coli ATCC 25922; assay: Antibacterial activity, MIC; format: cell-based; details: ATCC25922, agar two-fold dilution, 37° C., 20 hours
Description: as §1, §2

[23] = test system: Streptococcus faecalis ATCC 29212; assay: Antibacterial activity, MIC; format: cell-based; details: Enterococcus faecalis, ATCC29212; ATCC 29212; agar two-fold dilution, 37° C., 20 hours; read-out: MIC
Description: as §1, §2

[24] = test system: Shigella sonnei ATCC 11060; assay: Antibacterial activity, MIC; format: cell-based; details: ATCC11060, ATCC 11060, agar two-fold dilution, 37° C., 20 hours, read-out: MIC
Description: as §1, §2

[25] = test system: Shigella flexneri ATCC 11836; assay: Antibacterial activity, MIC; format: cell-based; details: ATCC11836, agar two-fold dilution, 37° C., 20 hours
Description: as §1, §2

[26] = test system: Providencia rettgeri ATCC 9250; assay: Antibacterial activity, MIC; format: cell-based; details: ATCC9250, agar two-fold dilution, 37° C., 20 hours
Description: as §1, §2

[27] = test system: Bacillus megaterium ATCC 9885; assay: Antibacterial activity, MIC; format: cell-based; details: Priestia megaterium, ATCC9885; ATCC 9885; agar two-fold dilution, 37° C., 20 hours; read-out: MIC
Description: as §1, §2

`CC[n+]1c(SCC2=C(C(=O)[O-])N3C(=O)C(NC(=O)/C(=N\OC(C)(C)C(=O)O)c4csc(N)n4)C3SC2)nc(N)c(C)c1N` (centres unmarked) [Compound I-32] showed a concentration at 0.5 min ([1]; 0.5 min) of 162000 ng/mL, a concentration at 2.5 min ([1]; 2.5 min) of 75000 ng/mL and a concentration at 5 min ([1]; 5 min) of 53000 ng/mL. It also gave a concentration at 10 min ([1]; 10 min) of 35000 ng/mL, a concentration at 20 min ([1]; 20 min) of 21000 ng/mL and a concentration at 40 min ([1]; 40 min) of 13000 ng/mL. For the same compound, the concentration at 1 h ([2]; 60 min, read-out: Plasma Conc.) was 7500 ng/mL, the concentration at 2 h ([2]; 120 min, read-out: Plasma Conc.) was 1800 ng/mL and the AUC ([2]; two compartment model) was 30500 ng·h/mL. It also gave a half-life ([2]; two compartment model, read-out: T1/2 (α)) of 3 min, a half-life ([2]; two compartment model, read-out: T1/2 (β)) of 29 min and an MIC [3] of 0.13 µg/mL (≈ 0.199 µM). For the same compound, the MIC [4] was at most 0.008 µg/mL, the MIC [5] was 2 µg/mL (≈ 3.07 µM) and the MIC [6] was 0.25 µg/mL (≈ 0.384 µM). For the same compound, the MIC [7] was 0.13 µg/mL (≈ 0.199 µM), the MIC [8] was 64 µg/mL (≈ 98.2 µM) and the MIC [9] was 0.063 µg/mL (≈ 0.0967 µM). For the same compound, the MIC [10] was 0.063 µg/mL (≈ 0.0967 µM), the MIC [11] was 0.25 µg/mL (≈ 0.384 µM) and the MIC [12] was 4 µg/mL (≈ 6.14 µM). It also gave an MIC [13] of 2 µg/mL (≈ 3.07 µM), an MIC [14] of 0.13 µg/mL (≈ 0.199 µM) and an MIC [15] of 8 µg/mL (≈ 12.3 µM). For the same compound, the MIC [16] was 1 µg/mL (≈ 1.53 µM), the MIC [17] was 0.016 µg/mL (≈ 0.0245 µM) and the MIC [18] was 2 µg/mL (≈ 3.07 µM). The MIC [19] was 2 µg/mL (≈ 3.07 µM), the MIC [20] was 4 µg/mL (≈ 6.14 µM) and the MIC [21] was 0.031 µg/mL (≈ 0.0476 µM). The MIC [22] was 0.13 µg/mL (≈ 0.199 µM), the MIC [23] was over 128 µg/mL and the MIC [24] was 0.13 µg/mL (≈ 0.199 µM). The MIC [25] was 0.031 µg/mL (≈ 0.0476 µM) and the MIC [26] was at most 0.008 µg/mL.

In the case of `CO/N=C(\C(=O)NC1C(=O)N2C(C(=O)[O-])=C(CSc3nc(N)cc(N)[n+]3C)CSC12)c1csc(N)n1` (centres unmarked) [Compound I-10], the MIC [3] is reported as 0.063 µg/mL (≈ 0.114 µM), the MIC [4] is reported as at most 0.008 µg/mL and the MIC [5] is reported as 2 µg/mL (≈ 3.63 µM). The MIC [6] was 0.063 µg/mL (≈ 0.114 µM), the MIC [7] was 0.063 µg/mL (≈ 0.114 µM) and the MIC [8] was 32 µg/mL (≈ 58 µM). The MIC [9] was 0.13 µg/mL (≈ 0.236 µM), the MIC [27] was 0.25 µg/mL (≈ 0.453 µM) and the MIC [10] was 0.016 µg/mL (≈ 0.029 µM). It also gave an MIC [11] of 0.25 µg/mL (≈ 0.453 µM), an MIC [12] of 0.25 µg/mL (≈ 0.453 µM) and an MIC [13] of 0.5 µg/mL (≈ 0.906 µM). The MIC [14] was 0.063 µg/mL (≈ 0.114 µM), the MIC [15] was 8 µg/mL (≈ 14.5 µM) and the MIC [16] was 0.13 µg/mL (≈ 0.236 µM). For the same compound, the MIC [17] was at most 0.008 µg/mL, the MIC [18] was 8 µg/mL (≈ 14.5 µM) and the MIC [19] was 0.25 µg/mL (≈ 0.453 µM). For the same compound, the MIC [20] was 32 µg/mL (≈ 58 µM), the MIC [21] was 0.13 µg/mL (≈ 0.236 µM) and the MIC [22] was 0.063 µg/mL (≈ 0.114 µM). It also gave an MIC [24] of 0.063 µg/mL (≈ 0.114 µM), an MIC [25] of 0.016 µg/mL (≈ 0.029 µM) and an MIC [26] of at most 0.008 µg/mL.
